Experiment [1] deals with P20-21 D/+ mice (Scn8a N1768D). As to the kind of experiment: Audiogenic seizure-induced death in P20-21 D/+ mice (adrenergic agonists, adrenergic blockade with mechanical ventilation). Conditions: for postictal breathing recovery (plethysmography): 3 mg/kg phenylephrine i.p. 1 minute prior. The format is in vivo, mouse. On the procedure:
(§1) Audiogenic seizure assessment. To test for audiogenic seizures mice were taken from their home cage and transferred to a clean test cage where they were allowed to acclimate for ˜20 seconds before the onset of the acoustic stimulus. Similar to a method described previously (Martin et al., 2020), a sonicator (Branson 200 ultrasonic cleaner) was used to produce the audiogenic stimulus directly adjacent to the test cage.
(§2) Audiogenic seizures were recorded using a laptop webcam. Duration of seizure phases were analyzed by taking the time in seconds that the mouse spent in each of the phases: a wild-running phase characterized by fast circular running throughout the cage, a tonic phase characterized by hindlimb extension and muscle rigidity, a clonic phase typified by myoclonic jerking of the hindlimbs, and recovery exemplified when the mouse ceased myoclonic jerking and righted itself. In cases where death occurred, the end of the tonic phase was apparent at the point of hindlimb muscle relaxation.
(§3) For recording of only breathing in pharmacological experiments, non-implanted mice were placed in the chambers immediately after injection of pharmacological agents. Stimulation of audiogenic seizures and recording of breathing were performed as described above.
Mechanical ventilation. For the mechanical ventilation of P20-21 D/+ mice during an audiogenic seizure, we quickly placed a custom-made 3 mL pipet which fit snuggly over the mouse's nose and mouth and provided regular pulses of air (˜1 mL at 2 Hz). The ventilation was terminated after the mouse initiated gasping behavior or 20 s after the animal experienced sudden death.
Adrenergic receptor pharmacology. All chemicals were purchased from Sigma Aldrich and were either of pharmaceutical grade or were sterile filtered prior to injection. Injections were given intraperitoneal in a volume of 50-100 ul sterile saline per […] of mouse weight (e.g. 0.1 mL for a […] adult mouse). […] Injection of 50-100 ul sterile saline per […] of mouse weight was used as control.

A further experiment relates to DBA1 mice. As to conditions: intracerebroventricular injection (Zhao et al., 2017); cited from earlier work.
Experiment [2] relates to maximal electroshock seizures. As to conditions: intracerebroventricular injection (Kruse et al., 2019); cited from earlier work.
Experiment [3] relates to adult D/+ mice (Scn8a N1768D). Description: Audiogenic seizure survival in adult D/+ mice after adrenergic receptor inhibition. The format is in vivo, mouse. Conditions: 10 mg/kg sotalol i.p. 15 minutes prior to audiogenic seizure stimulation. Here is the method: as §1, §2, §3
Mechanical ventilation. […]

Consider five compounds from US20240081300A1, “ADRENERGIC MECHANISMS OF AUDIOGENIC SEIZURE-INDUCED DEATH IN MOUSE MODEL OF SCN8A ENCEPHALOPATHY” (University of Virginia Patent Foundation, priority 2021, published 2024).

Entries after “also recorded” stand apart in the source; their conditions may differ.

As for `NC[C@H](O)c1ccc(O)c(O)c1` [NE, 4-[(1R)-2-amino-1-hydroxyethyl]benzene-1,2-diol], the “breathing recovery after tonic phase (plethysmography)” value in experiment [1] (2 mg/kg norepinephrine i.p. 1 minute prior) is “resulted in breathing recovery”. In experiment [1] (2 mg/kg norepinephrine i.p. 1 minute prior to audiogenic seizure stimulation, saline 3 of 13, 2 mg/kg), the “survival after audiogenic seizure (mice surviving of mice tested)” value (shortened to “survival … (mice surviving of mice tested)”) is 10 of 13 and significantly elevated rates of survival.

In the case of `CNCC[C@@H](Oc1ccccc1C)c1ccccc1` [atomoxetine], the “prevention of death from audiogenic seizures” value in the experiment with DBA1 mice was “prevents death”.

Consider `CNC[C@H](O)c1ccc(O)c(O)c1` [epinephrine], for which the “survival after audiogenic seizure (mice rescued of mice tested)” value in experiment [1] (2 mg/kg epinephrine i.p. 1 minute prior to audiogenic seizure stimulation, 2 mg/kg) is listed as “one of the five; also recorded: did not seem to result in rescue”.

For `CNC[C@H](O)c1cccc(O)c1` [phenylephrine, 3-[(1R)-1-hydroxy-2-(methylamino)ethyl]phenol], the “prevention of death from maximal electroshock seizures” value in experiment [2] is “prevents death”. In addition, the “survival … (mice surviving of mice tested)” value was 7 out of 8 and rescued death in experiment [1] (3 mg/kg phenylephrine i.p. 1 minute prior to audiogenic seizure stimulation, 3 mg/kg); “significantly elevated rates of survival” in experiment [1] (3 mg/kg phenylephrine i.p. 1 minute prior to audiogenic seizure stimulation, listed as PE, 3 mg/kg). For the same compound, the “postictal breathing recovery (plethysmography)” value in experiment [1] (3 mg/kg) is “promoted postictal breathing recovery”; in experiment [1] (listed as PE, 3 mg/kg), “breathing also ceased during the tonic phase but recovered”.

For `CC(C)NCC(O)c1ccc(NS(C)(=O)=O)cc1` (stereo not shown) [sotalol], the “survival … (mice surviving of mice tested)” value in experiment [3] is 12 out of 12 and had no affect on death rate.
